Experimental data taken from patent US12201601B2, “Treatment for obesity” (Axsome Malta Ltd., priority 2013, dated 2025).

Key:
[1] = 6-week randomized, double blind, active and placebo-controlled study in adult subjects with major depressive disorder: body weight; assay type: in vivo, Humans; conditions: for Mean weight loss / Subjects with weight Decrease ≥7% / Subjects with weight Increase <7% / Subjects with weight Increase ≥7% / Subjects with weight No change/decrease <7% / Weight, Change from Baseline, Mean / Weight, Change from Baseline, Median: baseline to endpoint; for Weight, End point, Mean / Weight, End point, Median: 6-week study
Protocol: A 6-week randomized, double blind, parallel group, active and placebo-controlled study was carried out to assess the efficacy of R228060 in adult subjects with major depressive disorder (MDD). Body weight was monitored throughout the study.

[2] = 6-month repeated dose oral toxicity study in rats: food consumption; assay type: in vivo
Protocol: (§1) A 6-month repeated dose oral toxicity study with 3-month recovery was carried out in rats for R228060 (Formula Ib). Body weight and food consumption were monitored throughout the study.

[3] = 52-week repeated dose oral toxicity study in beagle dogs: food consumption; assay type: in vivo
Protocol: (§2) A 52-week repeated dose oral toxicity study with 13-week recovery was carried out in beagle dogs for R228060 (Formula Ib). Body weight and food consumption were monitored throughout the study (see Table 1).

[4] = classic rat self-administration model
[5] = 6-month repeated dose oral toxicity study with 3-month recovery in rats: body weight; assay type: in vivo; conditions: for Body weight gain (in words) / Body weight (in words): p<0.05-0.001; for Body weight after cessation of treatment (in words): recovery period; for Decreases in body weight gain at the end of the treatment period: conclusion over dose levels
Protocol: as §1

[6] = nonclinical studies in mice, rats, and dogs: body weight and food consumption; assay type: in vivo
[7] = 52-week repeated dose oral toxicity study with 13-week recovery in beagle dogs: body weight; assay type: in vivo; conditions: for Body weight variation during the treatment-free period only (value in brackets, Table 1): Day 455
Protocol: as §2

[8] = female rats, 600/450 mg HCl-salt/kg
[9] = male rats, 600/450 mg HCl-salt/kg

NC(=O)OC[C@H](N)Cc1ccccc1 [Formula R228060, (R)-(beta-amino-benzenepropyl) carbamate]
Weight relative to placebo treated patients (in words) ([1]; 6-week clinical study in major depressive disorder patients): dose-related decrease in weight relative to placebo treated patients | Number of subjects with a decrease in weight of 7% or more ([1]; 200-mg group): 1 subjects | Percentage of subjects with a decrease in weight of 7% or more ([1]; 200-mg group): 0.9% | Mean weight loss ([1]; 200-mg group): 0.6 kg | Number of subjects with a decrease in weight of 7% or more ([1]; 400-mg group): 3 subjects | Percentage of subjects with a decrease in weight of 7% or more ([1]; 400-mg group): 2.5% | Mean weight loss ([1]; 400-mg group): 0.9 kg | Mean change from baseline to endpoint in BMI ([1]; R228060 200 mg): −0.2 kg/m^2 | Subjects with weight Decrease ≥7% ([1]; R228060 200 mg (N = 116)): 1 (0.9) n (%) | Subjects with weight Increase <7% ([1]; R228060 200 mg (N = 116)): 39 (33.6) n (%) | Subjects with weight Increase ≥7% ([1]; R228060 200 mg (N = 116)): 1 (0.9) n (%) | Subjects with weight No change/decrease <7% ([1]; R228060 200 mg (N = 116)): 75 (64.7) n (%) | Weight, End point, Mean ([1]; R228060 200 mg group): 85.4 kg | Weight, End point, Median ([1]; R228060 200 mg group): 83.4 kg | Weight, Change from Baseline, Mean ([1]; R228060 200 mg group): -0.6 kg | Weight, Change from Baseline, Median ([1]; R228060 200 mg group): -0.5 kg | Mean change from baseline to endpoint in BMI ([1]; R228060 400 mg): −0.3 kg/m^2 | Subjects with weight Decrease ≥7% ([1]; R228060 400 mg (N = 120)): 3 (2.5) n (%) | Subjects with weight Increase <7% ([1]; R228060 400 mg (N = 120)): 27 (22.5) n (%) | Subjects with weight Increase ≥7% ([1]; R228060 400 mg (N = 120)): 0 n (%) | Subjects with weight No change/decrease <7% ([1]; R228060 400 mg (N = 120)): 90 (75.0) n (%) | Weight, End point, Mean ([1]; R228060 400 mg group): 83.2 kg | Weight, End point, Median ([1]; R228060 400 mg group): 78.9 kg | Weight, Change from Baseline, Mean ([1]; R228060 400 mg group): -0.9 kg | Weight, Change from Baseline, Median ([1]; R228060 400 mg group): -0.9 kg | Reporting of anorexia (in words) ([1]; compound-treated groups, 6-week clinical study): increase in reporting of anorexia | Statistically significant increases in food consumption (assessment in words) ([2]; female rats, 35, 300 and 600/450 mg HCl-salt/kg body weight level): toxicologically irrelevant | Food consumption (significance, in words) ([2]; rats, 300 and 600/450 mg HCl-salt/kg body weight level): statistically significant decreases | Food consumption (in words) ([2]; rats, both sexes, first weeks of dosing, starting at 35 mg HCl-salt/kg body weight/day for males and 300 for females): dose-related decrease in food consumption | Food consumption (in words) ([3]; all female dogs, 50 mg/kg bw/day, first week of treatment): lower food consumption, which was marked for 3/6 animals | Food consumption during the treatment-free period (in words) ([3]; dogs, any animal): No effect on food consumption | Lower food consumption ([3]; female dogs, 25 mg/kg bw/day, first week of treatment): −25 to −50 % of the daily portion | Reduced food consumption ([3]; male dogs, 50 mg/kg bw/day, mainly first week of treatment): about −50 % of the daily portion | Reduced food consumption compared to control ([3]; one male dog, 25 mg/kg bw/day, first week of treatment): about −40% | Slightly lower food consumption ([3]; three out of four female dogs, 10 mg/kg bw/day, first week of treatment): about −25 % of the daily portion | Abuse potential: reinforcing properties (in words) [4]: not reinforcing | Abuse potential: rewarding properties (in words) (place preference model): no significant rewarding properties | Body weight and body weight gain (in words) ([5]; female rats, 35 mg HCl-salt/kg body weight/day oral for 6 consecutive months): did not adversely affect body weight and body weight gain | Body weight gain decreased compared to the control group ([5]; female rats, 300 mg HCl-salt/kg body weight/day oral, week 13): 15% | Body weight gain decreased compared to the control group ([5]; female rats, 300 mg HCl-salt/kg body weight/day oral, week 26): 23% | Body weight gain (in words) ([5]; female rats, 300 mg HCl-salt/kg body weight/day, especially towards end of dosing period): moderate to pronounced decrease | Body weight (in words) ([5]; female rats, 300 mg HCl-salt/kg body weight/day): moderately decreased body weight | Remaining body weight difference at the end of the recovery period compared to control animals (in words) [5, 8]: only slightly lower | Body weight gain decreased ([5]; female rats, 600/450 mg HCl-salt/kg body weight/day oral, week 13): 18% | Body weight gain decreased ([5]; female rats, 600/450 mg HCl-salt/kg body weight/day oral, week 26): 21% | Body weight gain (in words) ([5]; female rats, 600/450 mg HCl-salt/kg body weight/day, from first week of dosing): moderate to pronounced decrease in body weight gain | Body weight (in words) ([5]; female rats, 600/450 mg HCl-salt/kg body weight/day): moderately decreased body weight | Body weight after cessation of treatment (in words) [5, 8]: partial regain of their normal body weight | Decreases in body weight gain at the end of the treatment period ([5]; female rats): ≤ 21% | Body weight gain decreased ([5]; male rats, 35 mg HCl-salt/kg body weight/day oral, week 13, vs control): 6% | Body weight gain decreased ([5]; male rats, 35 mg HCl-salt/kg body weight/day oral, week 26, vs control): 5% | Body weight and weight gain (in words) ([5]; male rats, 35 mg HCl-salt/kg body weight/day, significant weeks 8-12 (gain) and 10-12 (weight), p<0.05): slightly lower compared to control rats | Body weight gain decreased ([5]; male rats, 300 mg HCl-salt/kg body weight/day oral, week 13): 27% | Body weight gain decreased ([5]; male rats, 300 mg HCl-salt/kg body weight/day oral, week 26): 24% | Body weight and body weight gain (in words) ([5]; male rats, 300 mg HCl-salt/kg body weight/day, from first week of dosing, p<0.001): pronounced decrease in body weight and body weight gain | Body weight at the end of the three month recovery period compared to control animals (in words) [5, 9]: still moderately lower | Body weight gain decreased ([5]; male rats, 600/450 mg HCl-salt/kg body weight/day oral, week 13): 33% | Body weight gain decreased ([5]; male rats, 600/450 mg HCl-salt/kg body weight/day oral, week 26): 32% | Body weight and body weight gain (in words) ([5]; male rats, 600/450 mg HCl-salt/kg body weight/day, from week 1 onwards, p<0.001): pronounced decrease in body weight and body weight gain | Body weight after cessation of treatment (in words) [5, 9]: partial regain of their normal (control) body weight | Decreases in body weight gain at the end of the treatment period ([5]; male rats): up to 32% | Body weights and body weight gains (conclusion in words) ([5]; rats, starting at 35 mg HCl-salt/kg body weight/day for males and 300 for females): dose-related decrease | Body weight, body weight gain and food consumption (in words) [6]: decreases in body weight and/or body weight gain as well as reductions in food consumption | Body weight change (Table 1) ([7]; dogs, 10 mg/kg bw/day, females, Day 4): −6% | Body weight change (Table 1) ([7]; dogs, 10 mg/kg bw/day, females, Day 21): −2% | Body weight change (Table 1) ([7]; dogs, 10 mg/kg bw/day, females, Day 182): +26% | Body weight change (Table 1) ([7]; dogs, 10 mg/kg bw/day, females, Day 364): +25% | Body weight change (Table 1) ([7]; dogs, 10 mg/kg bw/day, males, Day 4): −1% | Body weight change (Table 1) ([7]; dogs, 10 mg/kg bw/day, males, Day 21): 0% | Body weight change (Table 1) ([7]; dogs, 10 mg/kg bw/day, males, Day 182): +22% | Body weight change (Table 1) ([7]; dogs, 10 mg/kg bw/day, males, Day 364): +32% | Body weight change (Table 1) ([7]; dogs, 25 mg/kg bw/day, females, Day 4): −7% | Body weight change (Table 1) ([7]; dogs, 25 mg/kg bw/day, females, Day 21): −4% | Body weight change (Table 1) ([7]; dogs, 25 mg/kg bw/day, females, Day 182): +16% | Body weight change (Table 1) ([7]; dogs, 25 mg/kg bw/day, females, Day 364): +26% | Body weight change (Table 1) ([7]; dogs, 25 mg/kg bw/day, males, Day 4): −4% | Body weight change (Table 1) ([7]; dogs, 25 mg/kg bw/day, males, Day 21): −4% | Body weight change (Table 1) ([7]; dogs, 25 mg/kg bw/day, males, Day 182): +71% | Body weight change (Table 1) ([7]; dogs, 25 mg/kg bw/day, males, Day 364): +19% | Body weight change (Table 1) ([7]; dogs, 50 mg/kg bw/day, females, Day 4): −9% | Body weight change (Table 1) ([7]; dogs, 50 mg/kg bw/day, females, Day 21): −12% | Body weight change (Table 1) ([7]; dogs, 50 mg/kg bw/day, females, Day 182): +11% | Body weight change (Table 1) ([7]; dogs, 50 mg/kg bw/day, females, Day 364): +9% | Body weight variation during the treatment-free period only (value in brackets, Table 1) ([7]; dogs, 50 mg/kg bw/day, females): +26% (+26%) | Body weight change (Table 1) ([7]; dogs, 50 mg/kg bw/day, females, Day 455 (end of treatment-free period)): +26% (+26%) | Body weight change (Table 1) ([7]; dogs, 50 mg/kg bw/day, males, Day 4): −9% | Body weight change (Table 1) ([7]; dogs, 50 mg/kg bw/day, males, Day 21): −12% | Body weight change (Table 1) ([7]; dogs, 50 mg/kg bw/day, males, Day 182): +7% | Body weight change (Table 1) ([7]; dogs, 50 mg/kg bw/day, males, Day 364): +9% | Body weight variation during the treatment-free period only (value in brackets, Table 1) ([7]; dogs, 50 mg/kg bw/day, males): +6% | Body weight change (Table 1) ([7]; dogs, 50 mg/kg bw/day, males, Day 455 (end of treatment-free period)): +12% | Mean body weight gain compared to control (in words) ([7]; dogs, treated groups, days 182 and 364): lower does-relative mean body weight gain | Day on which weight returned to the initial weight ([7]; female dogs, 10 mg/kg bw/day): 28 days | Mean body weight loss ([7]; female dogs, 10 mg/kg bw/day, first 4 days of treatment): 0.4 kg | Day on which weight returned to the initial weight ([7]; female dogs, 25 mg/kg bw/day): 42 days | Mean body weight loss ([7]; female dogs, 25 mg/kg bw/day, first 4 days of treatment): 0.5 kg | Mean body weight loss ([7]; female dogs, 50 mg/kg bw/day, first 4 days of treatment): 0.7 kg | Body weight gain during the treatment-free period compared to controls (in words) ([7]; group 4 females): higher body weight gain | Body weight gain during the treatment-free period compared to controls (in words) ([7]; group 4 males): only slightly higher | Day on which weight returned to the initial weight ([7]; high dose female group (50 mg/kg bw/day)): 77 days | Mean body weight loss ([7]; high dose female group (50 mg/kg bw/day), day 21): 0.8 kg | Day on which weights returned to the initial values ([7]; high dose male group (50 mg/kg bw/day)): 126 days | Mean body weight loss ([7]; high dose male group (50 mg/kg bw/day), day 21): 0.8 kg | Day on which weights returned to initial weights ([7]; male dogs, 25 mg/kg bw/day): 35 days | Mean body weight loss ([7]; male dogs, 25 mg/kg bw/day, first 4 days of treatment): 0.3 kg | Mean body weight loss ([7]; male dogs, 50 mg/kg bw/day, first 4 days of treatment): 0.7 kg
